Entries after “also recorded” stand apart in the source; their conditions may differ.
How the values were obtained:
α2δ-1-NMDAR interaction = test: Luminescence resonance energy transfer (LRET) in HEK293 cells; assay type: binding, rat
Source text: Luminescence resonance energy transfer (LRET) measurements: For constructs used for LRET measurements, the extracellular non-disulfide-bonded cysteines were mutated to serines so that they were not labeled with the maleimide reactive fluorophore. For the GluN1 subunit, Cys22 and Cys459 were mutated; for the GluN2A subunit, Cys231, Cys399 and Cys461 were mutated. For measurement of LRET between GluN1 and α2δ-1, Cys22 was not mutated and was used as the site for attachment of the thiol-reactive fluorophore. Additionally, for quantitative analysis of the background, a thrombin recognition sequence (amino acids LVPRGS) was inserted immediately at the C-terminal to the cysteine (Kim and Chung, 1992). […]
Cysteines at the GluN1 and GluN2A sites labeled with thiol-reactive terbium chelate served as donor fluorophore sites, and YFP fused to α2δ-1 served as the acceptor fluorophore. […] The sample was excited at 337 nm, and emission was detected at 527 nm in a QuantaMaster QM3-SS system with Fluorescan software (Photon Technology International, Edison, N.J.). […] Data were analyzed with Origin 8.6 software (OriginLab Corp., Northampton, Mass.). Each sample was scanned 3 times for each ligated condition, and each scan was recorded as an average of 99 sweeps. […] The distance between the donor and acceptor was calculated using the Förster equation (Kim and Chung, 1992).

α2δ-1-Cav2.2 association = molecular target: T1, α2δ-1-Cav2.2 association (Mus musculus, UniProt O08532+O55017); test: Co-IP of α2δ-1 and Cav2.2 in mouse brain slices subjected to OGD; assay type: cell-based; settings: 1 μM for 30 min
T1 construct: from tissue; host or cells: mouse brain slices subjected to OGD, membrane extracts
Experimental: FIGS. 22A-22D: α2δ-1-bound NMDARs contribute to brain injury and neurological deficit caused by MCAO in the brain. (A) Upper: Original gel images of coimmunoprecipitation (co-IP) analysis show the interaction between α2δ-1 and GluN1 in two samples from mouse brain tissues; Lower: Effect of α2δ-1Tat peptide (1 μM for 60 min) on the α2δ-1-GluN1 protein complex in mouse brain tissues (n=6 mice per group). (B) Representative gel images and quantification of co-IP analysis show the effect of OGD on the α2δ-1-GluN1 or α2δ-1-Cav2.2 association in mouse brain tissues (n=6 mice per group). IgG and input were used as negative and positive controls, respectively. (C) Original gel images and quantification of co-IP analysis show the effect of α2δ-1Tat peptide (P) and control peptide (C; both 1 μM for 30 min) on the α2δ-1-GluN1 or α2δ-1-Cav2.2 association in mouse brain slices subjected to OGD (O, n=6 mice per group). (D) Neurological severity scores (left) and representative TTC staining and quantification (right) of brain infarct volume in MCAO mice treated with α2δ-1Tat peptide or control peptide (both 200 μg/kg, i.p.) at 15 min before MCAO and immediately before reperfusion (n=8 mice per group). Data are shown as means±SEM. *p<0.05, **p<0.01 compared with the control peptide- or vehicle-treated group (paired Student's t-test for panels B-D and F; Mann-Whitney test for panel E). […]

SNL rats = test: Withdrawal thresholds in spinal nerve ligation (SNL), sham and naive rats; assay type: in vivo, rat
Source text: Animal models of neuropathic pain: All surgical preparations and experimental protocols were approved by the Animal Care and Use Committee of the University of Texas MD Anderson Cancer Center and conformed to the National Institutes of Health guidelines for the ethical use of animals. Male Sprague-Dawley rats (8-10 weeks of age) were purchased from Harlan Laboratories (Indianapolis, Ind.). L5 and L6 spinal nerve ligation (SNL) were used as an experimental model of neuropathic pain (Cole et al., 2005). In brief, anesthesia was induced with 2-3% isoflurane, isolated the left L5-L6 spinal nerves and ligated them tightly with 6-0 silk sutures. The rats in the sham control group underwent the same surgical procedures except for the nerve ligation.
Intrathecal catheters were implanted in some SNL group rats during isoflurane-induced anesthesia 2-3 weeks after SNL surgery. Briefly, the anesthetized animal was placed on a stereotaxic frame, and a small incision was made at the back of its neck. Then, a small puncture was made in the atlanto-occipital membrane of the cisterna magna, and a PE-10 catheter (˜8 cm) was inserted with the caudal tip reaching the lumbar enlargement of the spinal cord (Luo et al., 2001; Patel et al., 2013). The rostral end of the catheter was exteriorized and closed the wound with sutures. The animals were allowed to recover for at least 4 days before the intrathecal injections were performed. Animals displaying signs of motor or neurological dysfunction were immediately killed with an intraperitoneal injection of phenobarbital (200 mg/kg) or by inhalation of CO2.
Behavioral assessments of nociception: To detect tactile allodynia, von Frey filaments were applied to the animals' left hindpaws (ipsilateral to the nerve injury). The rats or mice were placed individually in suspended chambers on a mesh floor. After an acclimation period of 30 min, a series of calibrated von Frey filaments were applied (Stoelting, Wood Dale, Ill.) perpendicularly to the plantar surface of the hindpaw with sufficient force to bend the filament for 6 s. Brisk withdrawal or paw flinching was considered a positive response. After a response, the filament of the next lower force was applied. In the absence of a response, the filament of the next greater force was applied. Using the up-down method, the tactile stimulus that produced a 50% likelihood of a withdrawal response was calculated (Fuller-Bicer et al., 2009).
To quantify the mechanical nociceptive threshold in the rats and mice (Patel et al., 2013; Dolphin et al., 2012), the paw pressure tests were conducted on the hindpaw with an analgesiometer (Ugo Basile, Varese, Italy). The device was activated by pressing a foot pedal, which triggered a motor that applied a constantly increasing force on a linear scale. […]

T1 sequence (O08532 25-956 limits assumed): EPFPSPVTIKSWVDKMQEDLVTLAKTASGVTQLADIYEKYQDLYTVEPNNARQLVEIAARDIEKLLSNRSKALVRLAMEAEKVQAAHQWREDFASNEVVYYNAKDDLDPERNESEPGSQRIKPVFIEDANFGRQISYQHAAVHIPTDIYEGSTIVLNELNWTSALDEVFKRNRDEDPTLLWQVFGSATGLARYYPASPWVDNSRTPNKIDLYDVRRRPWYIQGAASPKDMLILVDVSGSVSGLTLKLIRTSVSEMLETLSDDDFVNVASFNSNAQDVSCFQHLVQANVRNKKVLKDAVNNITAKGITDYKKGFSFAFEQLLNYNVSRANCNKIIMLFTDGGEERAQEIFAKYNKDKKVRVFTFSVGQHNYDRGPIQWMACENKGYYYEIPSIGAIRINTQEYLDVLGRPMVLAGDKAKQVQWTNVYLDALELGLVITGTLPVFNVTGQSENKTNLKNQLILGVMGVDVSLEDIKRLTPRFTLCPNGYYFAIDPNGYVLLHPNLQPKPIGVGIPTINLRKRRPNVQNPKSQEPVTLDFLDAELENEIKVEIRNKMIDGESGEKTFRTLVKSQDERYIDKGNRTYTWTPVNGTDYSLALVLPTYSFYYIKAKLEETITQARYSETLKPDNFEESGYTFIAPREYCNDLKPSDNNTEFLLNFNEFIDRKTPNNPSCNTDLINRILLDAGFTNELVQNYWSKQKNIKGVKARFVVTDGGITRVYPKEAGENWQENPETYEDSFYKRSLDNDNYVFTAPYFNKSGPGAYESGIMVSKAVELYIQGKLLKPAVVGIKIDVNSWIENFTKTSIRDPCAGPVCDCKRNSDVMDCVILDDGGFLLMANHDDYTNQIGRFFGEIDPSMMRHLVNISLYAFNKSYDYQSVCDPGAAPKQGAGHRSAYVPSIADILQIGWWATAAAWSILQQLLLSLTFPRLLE
T1 sequence (O55017 whole entry): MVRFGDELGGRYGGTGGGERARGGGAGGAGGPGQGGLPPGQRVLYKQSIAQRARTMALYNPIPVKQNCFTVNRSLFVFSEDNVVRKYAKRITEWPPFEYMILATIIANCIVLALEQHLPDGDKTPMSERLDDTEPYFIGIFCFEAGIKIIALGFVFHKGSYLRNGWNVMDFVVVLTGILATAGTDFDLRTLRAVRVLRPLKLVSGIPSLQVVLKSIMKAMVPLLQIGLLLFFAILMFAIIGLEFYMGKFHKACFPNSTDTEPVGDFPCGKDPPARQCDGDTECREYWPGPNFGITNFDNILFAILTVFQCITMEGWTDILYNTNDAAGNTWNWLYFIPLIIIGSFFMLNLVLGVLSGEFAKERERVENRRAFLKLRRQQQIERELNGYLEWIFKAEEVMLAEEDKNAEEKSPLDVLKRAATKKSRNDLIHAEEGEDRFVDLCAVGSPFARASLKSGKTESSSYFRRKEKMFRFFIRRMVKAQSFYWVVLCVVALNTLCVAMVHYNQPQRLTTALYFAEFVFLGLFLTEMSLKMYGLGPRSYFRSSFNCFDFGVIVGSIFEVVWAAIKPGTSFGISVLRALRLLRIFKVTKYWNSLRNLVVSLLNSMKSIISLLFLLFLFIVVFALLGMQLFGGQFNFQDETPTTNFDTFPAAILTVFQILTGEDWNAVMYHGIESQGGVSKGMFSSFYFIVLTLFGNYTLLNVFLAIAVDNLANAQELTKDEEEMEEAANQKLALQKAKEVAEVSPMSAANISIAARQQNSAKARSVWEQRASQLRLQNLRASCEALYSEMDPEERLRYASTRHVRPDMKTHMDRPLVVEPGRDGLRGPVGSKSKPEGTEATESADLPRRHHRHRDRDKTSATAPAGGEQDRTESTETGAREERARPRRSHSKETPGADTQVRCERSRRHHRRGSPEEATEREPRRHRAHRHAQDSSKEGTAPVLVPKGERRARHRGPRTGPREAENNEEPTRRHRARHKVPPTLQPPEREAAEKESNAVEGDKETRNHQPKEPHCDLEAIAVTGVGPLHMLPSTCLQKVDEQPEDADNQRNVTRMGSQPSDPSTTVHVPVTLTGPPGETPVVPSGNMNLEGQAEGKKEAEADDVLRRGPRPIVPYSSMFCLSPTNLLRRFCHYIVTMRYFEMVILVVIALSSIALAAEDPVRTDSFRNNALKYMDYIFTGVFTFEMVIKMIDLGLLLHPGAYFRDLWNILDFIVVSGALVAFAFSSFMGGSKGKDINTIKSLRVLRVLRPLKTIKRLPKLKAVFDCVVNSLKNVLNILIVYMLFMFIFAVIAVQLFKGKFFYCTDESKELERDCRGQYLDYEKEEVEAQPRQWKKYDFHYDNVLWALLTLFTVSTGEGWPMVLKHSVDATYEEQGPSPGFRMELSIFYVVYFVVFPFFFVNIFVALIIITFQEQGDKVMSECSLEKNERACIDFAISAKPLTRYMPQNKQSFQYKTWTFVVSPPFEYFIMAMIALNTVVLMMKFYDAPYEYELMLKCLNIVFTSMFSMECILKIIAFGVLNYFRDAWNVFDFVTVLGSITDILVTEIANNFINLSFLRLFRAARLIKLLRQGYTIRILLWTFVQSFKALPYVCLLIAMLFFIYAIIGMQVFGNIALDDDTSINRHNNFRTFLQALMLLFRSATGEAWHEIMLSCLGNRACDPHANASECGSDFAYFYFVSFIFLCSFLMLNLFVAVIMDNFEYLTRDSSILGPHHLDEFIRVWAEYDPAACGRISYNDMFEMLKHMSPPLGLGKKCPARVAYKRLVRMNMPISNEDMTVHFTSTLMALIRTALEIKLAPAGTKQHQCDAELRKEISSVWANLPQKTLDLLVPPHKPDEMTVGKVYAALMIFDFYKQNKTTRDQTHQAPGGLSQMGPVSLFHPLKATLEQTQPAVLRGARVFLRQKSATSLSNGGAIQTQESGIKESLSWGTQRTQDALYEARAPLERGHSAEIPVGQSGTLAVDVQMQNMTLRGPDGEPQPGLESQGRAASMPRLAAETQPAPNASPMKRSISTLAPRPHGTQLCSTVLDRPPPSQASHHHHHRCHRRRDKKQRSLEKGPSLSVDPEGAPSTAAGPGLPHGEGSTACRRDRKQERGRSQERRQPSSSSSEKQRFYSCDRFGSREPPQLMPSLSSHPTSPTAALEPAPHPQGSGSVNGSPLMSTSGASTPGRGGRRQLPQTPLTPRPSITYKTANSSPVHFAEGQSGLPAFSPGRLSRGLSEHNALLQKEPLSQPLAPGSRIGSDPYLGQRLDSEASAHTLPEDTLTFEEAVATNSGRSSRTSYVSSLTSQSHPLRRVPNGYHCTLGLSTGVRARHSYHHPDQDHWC

NCC1(CC(=O)O)CCCCC1 [gabapentin]
LRET signal with the R217A mutant of α2δ-1 (α2δ-1-NMDAR interaction; YFP-α2δ-1 R217A mutant): failed to alter; also recorded: had no effect | LRET signal between terbium-labeled NMDAR subunit and YFP-α2δ-1 (α2δ-1-NMDAR interaction; wild-type α2δ-1, terbium-labeled GluN2A or GluN1): completely abrogated; also recorded: loss of the LRET signal; also recorded: diminished the interaction

YGRKKRRQRRRVSGLNPSLWSIFGLQFILLWLVSGSRHYLW (a2d1 peptide) [α2δ-1Tat peptide, 30-amino-acid peptide mimicking the C-terminal domain of α2δ-1 fused to the cell-penetrating peptide Tat]
α2δ-1-Cav2.2 association in brain tissues subjected to OGD (α2δ-1-Cav2.2 association): had no effect | pain hypersensitivity of SNL rats (SNL rats; SNL rats, peptides intrathecal or systemic, siRNA intrathecal): large reduction | withdrawal thresholds in sham control rats (SNL rats; sham control rats): had no effect
